Experiments:
[1] = test system: Ishikawa cells; assay: Cell cycle analysis (flow cytometry); format: cell-based, human; details: 0.5 µM and 1 µM, 48 h, vs control group
Method: Furthermore, the regulatory effect of compound 14 in the cell cycle distribution of Ishikawa cancer cells was evaluated via flow cytometric analysis. Ishikawa cells seeded on a 6-well plate (3 × 10^5 cells/well) were treated with compound 14 for 48 h. After 48 h treatment of Ishikawa cells with compound 14, the cell cycle started to be arrested at the G2/M phase.
Cells were treated with compound 14 (10, 50, 100, 500 and 1000 nM) for […], collected and washed once with PBS. The pellet was then fixed in 70% ethanol overnight, followed by one washing with PBS and incubation with RNAse A for 90 min at 37 °C. Cells were then stained with PI and acquired in FACS. Analysis of the data was done by Modfit software (Verity Software House Inc., Topsham, ME) for the proportions of different cell cycle phases.[69]

[2] = biological target: T1, Tubulin (Sus scrofa, UniProt P02550+P02554); assay: In vitro microtubule assembly (tubulin polymerisation) assay; format: biochemical; details: treatment concentrations 0.1, 1, 5, 10 μM; mean ± SD of three experiments
T1 construct: purchased Cytoskeleton T240 (kit BK006P)
T1 sequence (P02550 whole entry): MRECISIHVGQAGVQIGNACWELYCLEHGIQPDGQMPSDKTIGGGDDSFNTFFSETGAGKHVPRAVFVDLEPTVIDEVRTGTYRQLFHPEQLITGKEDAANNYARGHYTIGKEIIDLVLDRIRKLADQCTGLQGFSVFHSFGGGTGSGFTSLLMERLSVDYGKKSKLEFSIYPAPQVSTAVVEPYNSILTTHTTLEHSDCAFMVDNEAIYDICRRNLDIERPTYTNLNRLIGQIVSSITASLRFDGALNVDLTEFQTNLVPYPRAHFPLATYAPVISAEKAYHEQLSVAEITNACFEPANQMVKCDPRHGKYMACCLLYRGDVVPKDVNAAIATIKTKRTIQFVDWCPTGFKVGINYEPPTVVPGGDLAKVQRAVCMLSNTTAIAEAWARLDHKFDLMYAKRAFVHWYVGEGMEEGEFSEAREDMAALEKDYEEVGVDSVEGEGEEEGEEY
T1 sequence (P02554 whole entry): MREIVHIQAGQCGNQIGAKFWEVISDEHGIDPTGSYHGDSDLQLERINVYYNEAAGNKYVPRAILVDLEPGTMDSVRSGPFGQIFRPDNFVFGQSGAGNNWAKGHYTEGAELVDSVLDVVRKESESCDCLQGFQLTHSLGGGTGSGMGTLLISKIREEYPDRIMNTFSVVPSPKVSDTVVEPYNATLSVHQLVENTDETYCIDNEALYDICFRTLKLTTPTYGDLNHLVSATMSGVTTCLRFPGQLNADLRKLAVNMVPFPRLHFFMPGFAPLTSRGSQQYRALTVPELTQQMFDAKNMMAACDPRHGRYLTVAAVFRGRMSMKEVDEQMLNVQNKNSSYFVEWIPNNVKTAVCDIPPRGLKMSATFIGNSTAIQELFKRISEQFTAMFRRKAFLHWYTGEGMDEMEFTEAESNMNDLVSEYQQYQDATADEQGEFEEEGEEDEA
Method: The assay was performed using the tubulin polymerisation kit (BK006P,Cytoskeleton). Pure tubulin (cat. # T240) was equilibrated in 80 mM PIPES, 1 mM EGTA, 1 mM MgCl2, pH 6.8 buffer (BRB80) and centrifuged at 75 000 rpm for 10 min in an TLA-100 rotor in a centrifuge.

[3] = test system: Ishikawa cell lines; assay: In-vitro cytotoxicity (MTT cell viability assay); format: cell-based; details: Homo sapiens; Ishikawa cell lines, MTT, 48 h incubation, mean ± SD, at least three experiments; read-out: IC50 values (Ishikawa cell lines, µM ± SD), in-vitro growth inhibition
Method: The cell growth inhibitory effects of the synthesised compounds were evaluated against Ishikawa cell lines. […] Forth, the synthesised compounds bearing a substituted phenyl ring at position 2 of the biaryl arm bearing benzopyrans were profiled for the cytotoxic effects. Noteworthy to mention that diverse substitutions with varied electronic effects viz fluorine (−I, +R), methoxy (−I, +R), and nitro (−I and − R) were made on the phenyl ring (position 2 of benzopyran). Also, the trimethoxy phenyl ring well established as an imperative structural feature of tubulin inhibitors was tethered to the benzopyran scaffold (20, 21).
Ishikawa cells (a human endometrial carcinoma of the epithelial cell) were kindly gifted by Dr. Geetanjali Sachdeva and Dr. Uddhav Chaudhari of National Institute for Research In Reproductive and Child Health (NIRRCH), Mumbai. […] The cells were maintained in RPMI medium supplemented with 10% Foetal bovine serum (FBS) and 100 IU/mL penicillin.
Mitochondrial activity was evaluated by MTT assay.[59] This assay is based on enzymatic reduction of the yellow-colored MTT dye to purple-colored formazan crystals by a variety of mitochondrial and cytosolic enzymes that are operational in viable cells. Briefly, […] (3000 cells/well) were seeded in 100 µL of medium into a 96-well plate and left to settle in a CO2 incubator. […] Then 150 μL of DMSO was added to each well to dissolve the formazan crystals. The optical density (OD) of each well was recorded using a microplate reader at a wavelength of 570 nm. The percentages of cell viability and growth inhibition were calculated according to the following equations. Cell viability (%) = [(OD of treated cells-OD of blank)/(OD of control-OD of blank) ×100].

[4] = test system: Ishikawa cells; assay: Acridine orange staining, autophagy; format: cell-based, human; details: Ishikawa cells, 0.1, 0.5 and 1 µM
Method: Compound 14 was evaluated for its ability to induce autophagy by acridine orange staining assay. […] This shift towards red fluorescence represents an elevation in autophagic flux, reflecting an active process of cellular degradation and recycling.
The Autophagy induction ability of compound 14 was assessed by acridine orange staining which is used to measure the autophagic acidic vesicular organnelles. Ishikawa cell were seeded in a six-well plate and treated with compound 14 for 48 h. Incubation of the cells was done with 1 mg/mL Acridine orange (Cat no. A9231) before the termination of the experiment. Cells were then washed with PBS and then analysed with a fluorescence microscope. […] A9231.

O=c1cc(-c2ccc(F)cc2)oc2cc(-c3ccoc3)ccc12 [Compound 14, 2–(4-fluorophenyl)-7-(furan-3-yl)-4H-chromen-4-one]
Cell cycle distribution (G2/M phase arrest) [1]: significant increase in G2/M phase cell cycle arrest
IC50 [2]: 1.4 ± 0.3 µM
IC50 [3]: 1 ± 0.4 µM
Autophagy induction (acridine orange staining) [4]: induces autophagy by increasing autophagic flux in a concentration-dependent manner

— paper PMC10627047, “Flavone-based dual PARP-Tubulin inhibitor manifesting efficacy against endometrial cancer” (Journal of Enzyme Inhibition and Medicinal Chemistry, 2023)
